# From US20080114005A1, “Fibrate Compounds Having Ppar Agonist Activity” (Dr. Reddy's Laboratories Limited, priority 2004, published 2008)
row,Structure (SMILES),melting point [°C]
1,"CCCc1nn(C)c2c(=O)n(CCNc3ccc(SC(C)(C)C(=O)O)cc3)c(CC)nc12 [Example 42, 2-{4-[2-(5-Ethyl-1-methyl-7-oxo-3-propyl-1,7-dihydro-pyrazolo[4,3-d]pyrimidin-6-yl)-ethylamino]-phenylsulfanyl}-2-methyl-propionic acid]",187 to 189
2,"CCCc1nn(CC)c2c(=O)n(CCNc3ccc(SC(C)(C)C(=O)OCC)cc3)c(CC)nc12 [Example 47, 2-{4-[2-(1,5-Diethyl-7-oxo-3-propyl-1,7-dihydro-pyrazolo[4,3-d]pyrimidin-6-yl)-ethylamino]-phenylsulfanyl}-2-methyl-propionic acid ethyl ester]",85 to 87
3,"CCCc1nn(CC)c2c(=O)n(CCNc3ccc(SC(C)(C)C(=O)O)cc3)c(CC)nc12 [Example 48, 2-{4-[2-(1,5-Diethyl-7-oxo-3-propyl-1,7-dihydro-pyrazolo[4,3-d]pyrimidin-6-yl)-ethylamino]-phenylsulfanyl}-2-methyl-propionic acid]",143 to 145
4,"CCCc1nn(C)c2c(=O)n(CCOc3ccc(OC(C)(C)C(=O)O)cc3)cnc12 [Example 58, 2-Methyl-2-{4-[2-(1-methyl-7-oxo-3-propyl-1,7-dihydro-pyrazolo[4,3-d]pyrimidin-6-yl)-ethoxy]-phenoxy}-propionic acid]",144 to 146
5,"CCCc1nn(C)c2c(=O)n(CCOc3ccc(OC(C)(C)C(=O)OCC)cc3)c(C)nc12 [Example 59, 2-{4-[2-(1,5-Dimethyl-7-oxo-3-propyl-1,7-dihydro-pyrazolo[4,3-d]pyrimidin-6-yl)-ethoxy]-phenoxy}-2-methyl-propionic acid ethyl ester]",98 to 100
6,"CCCc1nn(C)c2c(=O)n(CCNc3ccc(OC(C)(C)C(=O)O)cc3)c(C)nc12 [Example 62, 2-{4-[2-(1,5-Dimethyl-7-oxo-3-propyl-1,7-dihydro-pyrazolo[4,3-d]pyrimidin-6-yl)-ethylamino]-phenoxy}-2-methyl-propionic acid]",88 to 90
7,"CCCc1nn(C)c2c(=O)n(CCCOc3ccc(OC(C)(C)C(=O)O)cc3)cnc12 [Example 64, 2-Methyl-2-{4-[3-(1-methyl-7-oxo-3-propyl-1,7-dihydro-pyrazolo[4,3-d]pyrimidin-6-yl)-propoxy]-phenoxy}-propionic acid]",136 to 138
8,"CCCc1nn(C)c2c(=O)n(CCCNc3ccc(OC(C)(C)C(=O)O)cc3)c(C)nc12 [Example 68, 2-{4-[3-(1,5-Dimethyl-7-oxo-3-propyl-1,7-dihydro-pyrazolo[4,3-d]pyrimidin-6-yl)-propylamino]-phenoxy}-2-methyl-propionic acid]",104 to 106
9,"CCCc1nn(C)c2c(=O)n(CCOc3ccc(OC(C)(C)C(=O)OCC)cc3)c(CC)nc12 [Example 69, 2-{4-[2-(5-Ethyl-1-methyl-7-oxo-3-propyl-1,7-dihydro-pyrazolo[4,3-d]pyrimidin-6-yl)-ethoxy]-phenoxy}-2-methyl-propionic acid ethyl ester]",66 to 68
10,"CCCc1nn(C)c2c(=O)n(CCOc3ccc(OC(C)(C)C(=O)O)cc3)c(CC)nc12 [Example 70, 2-{4-[2-(5-Ethyl-1-methyl-7-oxo-3-propyl-1,7-dihydro-pyrazolo[4,3-d]pyrimidin-6-yl)-ethoxy]-phenoxy}-2-methyl-propionic acid]",108 to 110
11,"CCCc1nn(C)c2c(=O)n(CCCNc3ccc(OC(C)(C)C(=O)O)cc3)c(CC)nc12 [Example 72, 2-{4-[3-(5-Ethyl-1-methyl-7-oxo-3-propyl-1,7-dihydro-pyrazolo[4,3-d]pyrimidin-6-yl)-propylamino]-phenoxy}-2-methyl-propionic acid]",124 to 126
12,"CCCc1nn(C)c2c(=O)n(CCCOc3ccc(OC(C)(C)C(=O)O)cc3)c(CC)nc12 [Example 74, 2-{4-[3-(5-Ethyl-1-methyl-7-oxo-3-propyl-1,7-dihydro-pyrazolo[4,3-d]pyrimidin-6-yl)-propoxy]-phenoxy}-2-methyl-propionic acid]",124 to 126
13,"CCCc1nn(C)c2c(=O)n(CCNc3ccc(OC(C)(C)C(=O)O)cc3)c(CC)nc12 [Example 76, 2-{4-[2-(5-Ethyl-1-methyl-7-oxo-3-propyl-1,7-dihydro-pyrazolo[4,3-d]pyrimidin-6-yl)-ethylamino]-phenoxy}-2-methyl-propionic acid]",136 to 138
14,"CCCc1nn(C)c2c(=O)n(CCCc3cccc(OC(C)(CC)C(=O)O)c3)c(C)nc12 (stereo not drawn) [Example 87, 2-{3-[3-(1,5-Dimethyl-7-oxo-3-propyl-1,7-dihydro-pyrazolo[4,3-d]pyrimidin-6-yl)-propyl]-phenoxy}-2-methyl-butyric acid]",136 to 138
15,"CCCc1nn(C)c2c(=O)n(CCOc3ccc(OC4(C(=O)OCC)CCC4)cc3)c(C)nc12 [Example 90, 1-{4-[2-(1,5-Dimethyl-7-oxo-3-propyl-1,7-dihydro-pyrazolo[4,3-d]pyrimidin-6-yl)-ethoxy]-phenoxy}-cyclobutanecarboxylic acid ethyl ester]",132 to 134
16,"CCCc1nn(C)c2c(=O)n(CCOc3ccc(OC4(C(=O)O)CCC4)cc3)c(C)nc12 [Example 91, 1-{4-[2-(1,5-Dimethyl-7-oxo-3-propyl-1,7-dihydro-pyrazolo[4,3-d]pyrimidin-6-yl)-ethoxy]-phenoxy}-cyclobutanecarboxylic acid]",188 to 190
17,"CCCc1nn(CC)c2c(=O)n(CCOc3cccc(OC(C)(C)C(=O)O)c3)c(C)nc12 [Example 93, 2-{3-[2-(1-Ethyl-5-methyl-7-oxo-3-propyl-1,7-dihydro-pyrazolo[4,3-d]pyrimidin-6-yl)-ethoxy]-phenoxy}-2-methyl-propionic acid]",147 to 149
18,"CCCc1nn(C)c2c(=O)n(CCOc3cc(O[C@@](C)(CC)C(=O)O)ccc3Cl)c(C)nc12 [Example 106, S-(−)-2-{4-Chloro-3-[2-(1,5-dimethyl-7-oxo-3-propyl-1,7-dihydro-pyrazolo[4,3-d]pyrimidin-6-yl)-ethoxy]-phenoxy}-2-methyl-butyric acid]",99 to 100

# Other lines, results leading:
row,melting point [°C],Structure (SMILES)
1,104 to 106,"CCCc1nn(C)c2c(=O)n(CCOc3ccc(SC(C)(C)C(=O)O)cc3)c(CC)nc12 [Example 44, 2-{4-[2-(5-Ethyl-1-methyl-7-oxo-3-propyl-1,7-dihydro-pyrazolo[4,3-d]pyrimidin-6-yl)-ethoxy]-phenylsulfanyl}-2-methyl-propionic acid]"
2,123 to 125,"CCCc1nn(CC)c2c(=O)n(CCOc3ccc(SC(C)(C)C(=O)O)cc3)c(CC)nc12 [Example 50, 2-{4-[2-(1,5-Diethyl-7-oxo-3-propyl-1,7-dihydro-pyrazolo[4,3-d]pyrimidin-6-yl)-ethoxy]-phenylsulfanyl}-2-methyl-propionic acid]"
3,85 to 87,"CCCc1nn(CC)c2c(=O)n(CCOc3ccc(SC(C)(C)C(=O)OCC)cc3)c(C)nc12 [Example 51, 2-{4-[2-(1-Ethyl-5-methyl-7-oxo-3-propyl-1,7-dihydro-pyrazolo[4,3-d]pyrimidin-6-yl)-ethoxy]-phenylsulfanyl}-2-methyl-propionic acid ethyl ester]"
4,178 to 180,"CCCc1nn(CC)c2c(=O)n(CCOc3ccc(SC(C)(C)C(=O)O)cc3)c(C)nc12 [Example 52, 2-{4-[2-(1-Ethyl-5-methyl-7-oxo-3-propyl-1,7-dihydro-pyrazolo[4,3-d]pyrimidin-6-yl)-ethoxy]-phenylsulfanyl}-2-methyl-propionic acid]"
5,155 to 157,"CCCc1nn(CC)c2c(=O)n(CCOc3ccc(SC(C)(CC)C(=O)O)cc3)c(C)nc12 (stereo not drawn) [Example 54, 2-{4-[2-(1-Ethyl-5-methyl-7-oxo-3-propyl-1,7-dihydro-pyrazolo[4,3-d]pyrimidin-6-yl)-ethoxy]-phenylsulfanyl}-2-methyl-butyric acid]"
6,164 to 166,"CCOC(=O)C(C)(CC)Sc1ccc(OCCCn2c(C)nc3ccccc3c2=O)cc1 (stereo not drawn) [Example 55, 2-Methyl-2-{4-[3-(2-methyl-4-oxo-4H-quinazolin-3-yl)-propoxy]-phenylsulfanyl}-butyric acid ethyl ester]"
7,130 to 132,"CCC(C)(Sc1ccc(OCCCn2c(C)nc3ccccc3c2=O)cc1)C(=O)O (stereo not drawn) [Example 56, 2-Methyl-2-{4-[3-(2-methyl-4-oxo-4H-quinazolin-3-yl)-propoxy]-phenylsulfanyl}-butyric acid]"
8,146 to 148,"CCCc1nn(C)c2c(=O)n(CCOc3ccc(OC(C)(C)C(=O)O)cc3)c(C)nc12 [Example 60, 2-{4-[2-(1,5-Dimethyl-7-oxo-3-propyl-1,7-dihydro-pyrazolo[4,3-d]pyrimidin-6-yl)-ethoxy]-phenoxy}-2-methyl-propionic acid]"
9,158 to 160,"CCCc1nn(C)c2c(=O)n(CCCOc3ccc(OC(C)(C)C(=O)O)cc3)c(C)nc12 [Example 66, 2-{4-[3-(1,5-Dimethyl-7-oxo-3-propyl-1,7-dihydro-pyrazolo[4,3-d]pyrimidin-6-yl)-propoxy]-phenoxy}-2-methyl-propionic acid]"
